Experimental data from article PMC12655527, “An Investigational Study on the Role of ADME Agents’ Genetic Variation on DD217 Pharmacokinetics and Safety Profile” (Pharmaceuticals, 2025).

What was measured:
[1] = tested on: patients undergoing knee replacement surgery; assay: Bleeding events during 14-day therapy, phase II trial; type: in vivo, human
Text: (§1) The design, eligibility criteria, and outcomes of the phase II clinical trial evaluating the safety and tolerability of DD217 (NCT05189002, ClinicalTrials.gov) have been described previously. Briefly, this was a multicenter, double-blind, randomized, prospective phase II study designed to determine the optimal dosing regimen and to assess the safety and efficacy of DD217 for the prevention of venous thromboembolism (VTE) in patients undergoing knee replacement surgery. Patients were randomized into one of three groups: two groups received oral DD217 at doses of 40 mg or 60 mg once daily, starting on the morning of the first postoperative day, and one group received the active comparator, dalteparin sodium. The treatment duration was 14 days.
(§2) In total, seven cases of DVT/PE were documented during the trial: four in the DD217 40 mg/day group, one in the DD217 60 mg/day group, and two in the dalteparin sodium group. In addition, two bleeding events were recorded: one clinically relevant non-major bleed in the DD217 60 mg/day group and one clinically non-relevant minor bleed in the dalteparin sodium group.

[2] = tested on: patients undergoing knee replacement surgery; assay: Thromboembolic complications (DVT/PE) during 14-day therapy, phase II trial; type: in vivo, human; conditions: 14 days
Text: as §1, §2

P-glycoprotein (ABCB1) = tested on: P-glycoprotein (ABCB1); parameters: method as in earlier work; conditions: cited from earlier work
CYP = tested on: CYP; parameters: method as in DrugBank. Betrixaban (DB12364); conditions: ref DrugBank. Betrixaban (DB12364); cited from earlier work

| Compound | bleeding events ([1]; dalteparin sodium group, clinically non-relevant minor bleed) | Bleeding, n (safety outcomes) ([1]; dalteparin sodium, 14 days, of 18 patients) [n] | cases of DVT/PE ([2]; dalteparin sodium group (18 patients)) | PE/DVT, n (safety outcomes) ([2]; dalteparin sodium, of 18 patients) [n] | P-glycoprotein (ABCB1) substrate status (P-glycoprotein (ABCB1)) | share of metabolism via CYP (CYP) [%] |
| --- | --- | --- | --- | --- | --- | --- |
| dalteparin sodium [reference compound] | one | 1 | two | 2 |  |  |
| COc1ccc(NC(=O)c2ccc(C(=N)N(C)C)cc2)c(C(=O)Nc2ccc(Cl)cn2)c1 [Betrixaban] |  |  |  |  | P-glycoprotein (ABCB1) substrate | < 1 |
